Laboratory results: US7655598B2, “Herbicide composition” (Sumitomo Chemical Company, Limited, priority 2001, dated 2010)

Test system: sickle pod
Test: Test Example 1: foliar spray herbicide effect on sickle pod in greenhouse pots
Format: in vivo, sickle pod (Cassia obtusifolia)
Details: evaluated 5 days after treatment, scale 0-10
Protocol: Evaluation of phytotoxicity against a crop was shown by “no” when almost no phytotoxicity was observed, “low” when a low level phytotoxicity was observed, “medium” when a medium level phytotoxicity was observed and “high” when a high level phytotoxicity was observed.
A plastic pot of 11 cm in diameter and 8 cm in depth was filled with field soil. A seed of sickle pod was sown and grown in a greenhouse for 28 days.
An emulsion of Compound A-1 was prepared by sufficiently mixing 5 parts of Compound A-1, 6 parts of Sorpol 3005X (surfactant, produced by Toho Chemical) and 89 parts of xylene.
Each of • single use of an emulsion of Compound A-1, • single use of an emulsion of Oxyfluorfen (commercial name: Goal, produced by Rohm & Hass Co., containing 23% of Oxyfluorfen), and • a mixed composition of an emulsion of Compound A-1 and an emulsion of Oxyfluorfen, • were diluted with water containing 1% Agri-dex (produced by Helena). Respective dilutions were uniformly sprayed from upper side onto foliages of sickle pod grown as described above with a small sprayer such that the amounts of the active ingredients were the amounts shown in Table 4.
After the treatment, they were raised in a greenhouse for 5 days and the effect against weeds was evaluated.

## CCOc1cc(Oc2ccc(C(F)(F)F)cc2Cl)ccc1[N+](=O)[O-] [Oxyfluorfen, 2-chloro-1-(3-ethoxy-4-nitrophenoxy)-4-(trifluoromethyl)benzen]
500 g/ha active ingredient
  Herbicide Effect sickle pod: 3
2000 g/ha active ingredient
  Herbicide Effect sickle pod: 3
